# Measurements as given in patent US6737383B1, “Herbicidal oxadiazolidines” (priority 1999, dated 2004).
# Assays:
# crabgrass = test: Test B pre/postemergence crabgrass; format: in vivo, Digitaria sanguinalis
# Procedure, shortened: (§1)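 Herbicidal effect was estimated by eye on a ten-point control scale after plants spent twelve to sixteen days in a greenhouse following soil or foliar treatment. Foliar sprays targeted plants at one to four leaves; all doses were formulated in a non-phytotoxic solvent with surfactant.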
# soybean = test: Test B pre/postemergence soybean; format: in vivo, Glycine max
# Procedure, shortened: as §1
# wild oat = test: Test B pre/postemergence wild oat; format: in vivo, Avena fatua
# Procedure, shortened: as §1
# smallflower flatsedge = test: Test B flood test smallflower flatsedge; format: in vivo, Cyperus difformis; conditions: for Plant response rating, S. Flatsedge (0 to 10 scale, 0 is no effect, 10 is complete control) / S. Flatsedge plant response rating (0 to 10 scale, 0 is no effect, 10 is complete control): visual evaluation after twelve to sixteen days; for S. Flatsedge plant response rating (0 to 10 scale, 0 is no effect, 10 is complete control): under heading Pre-emergence
# Procedure, shortened: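 Plants were grown to the 2-leaf stage before treatment with test chemical, then held in a greenhouse for twelve to sixteen days. Injury was visually rated against untreated controls on a 0–10 scale, where 0 is no effect and 10 is complete control.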
# wheat = test: Test B pre/postemergence wheat; format: in vivo, Triticum aestivum
# Procedure, shortened: as §1
# [1] = Postemergence, Rate 62 g/ha, scale of 0 to 10, 0 is no effect, 10 is complete control
# [2] = Postemergence, Rate 500 g/ha, scale of 0 to 10 where 0 is no effect and 10 is complete control
# [3] = Preemergence, Rate 62 g/ha, scale 0 to 10 (0 no effect, 10 complete control)
# [4] = Preemergence, Rate 125 g/ha, scale 0 to 10, 0 is no effect, 10 is complete control
# [5] = Preemergence, Rate 500 g/ha, scale of 0 to 10 where 0 is no effect and 10 is complete control
# [6] = Rate 250 g/ha, Postemergence, scale of 0 to 10 where 0 is no effect and 10 is complete control
# [7] = Rate 62 g/ha, flood test species, Pre-emergence
# [8] = Rate 125 g/ha, flood test species
# [9] = Rate 250 g/ha, Pre-emergence (flood test species), scale 0 to 10, 0 is no effect, 10 is complete control
# [10] = Rate 500 g/ha, Pre-emergence section of Table B, 0 to 10 scale (0 no effect, 10 complete control)
# [11] = Postemergence, Rate 62 g/ha, scale 0 to 10, 0 is no effect, 10 is complete control
# [12] = Postemergence, Rate 125 g/ha, scale of 0 to 10 where 0 is no effect and 10 is complete control
# [13] = Postemergence, Rate 250 g/ha, scale of 0 to 10, 0 is no effect, 10 is complete control
# [14] = Preemergence, Rate 125 g/ha, scale of 0 to 10 where 0 is no effect and 10 is complete control
# [15] = Preemergence, Rate 250 g/ha, scale 0 to 10 (0 no effect, 10 complete control)
# [16] = Preemergence, Rate 125 g/ha, scale 0 to 10 (0 no effect, 10 complete control)
# [17] = Preemergence, Rate 250 g/ha, scale of 0 to 10 where 0 is no effect and 10 is complete control
# [18] = Preemergence, Rate 500 g/ha, scale 0 to 10 (0 no effect, 10 complete control)
# [19] = Rate 62 g/ha, Postemergence, scale of 0 to 10 where 0 is no effect and 10 is complete control
# [20] = Rate 500 g/ha, Postemergence, scale 0 to 10, 0 no effect, 10 complete control
# [21] = Rate 250 g/ha, Postemergence, scale 0 to 10, 0 is no effect, 10 is complete control
# [22] = Preemergence, Rate 125 g/ha, 0 is no effect, 10 is complete control
compound,measurement,setting,value
CC(C)N(C(=O)n1oc(=O)n(CCC2OCCCO2)c1=O)c1ccccc1 [Compound 561],Crabgrass plant response rating,crabgrass; [1],2
same,Crabgrass plant response rating,"crabgrass; Postemergence, Rate 125 g/ha, scale 0 to 10, 0 is no effect, 10 is complete control",3
same,"Plant response rating, Crabgrass",crabgrass; [2],9
same,Crabgrass plant response rating,crabgrass; [3],9
same,Crabgrass plant response rating,crabgrass; [4],9
same,Crabgrass plant response rating (0 to 10 scale),"crabgrass; Preemergence, Rate 250 g/ha",9
same,Crabgrass plant response rating,crabgrass; [5],9
same,"Plant response rating, Crabgrass",crabgrass; [6],4
same,Soybean plant response rating,soybean; [1],2
same,"Plant response rating, Soybean",soybean; [2],5
same,Soybean plant response rating,soybean; [3],0
same,Soybean plant response rating,soybean; [4],0
same,Soybean plant response rating (0 to 10 scale),"soybean; Preemergence, Rate 250 g/ha",0
same,Soybean plant response rating,soybean; [5],2
same,"Plant response rating, Soybean",soybean; [6],3
same,Wild oats plant response rating,wild oat; [1],0
same,"Plant response rating, Wild oats",wild oat; [2],2
same,Wild oats plant response rating,wild oat; [3],0
same,Wild oats plant response rating,wild oat; [4],2
same,Wild oats plant response rating (0 to 10 scale),"wild oat; Preemergence, Rate 250 g/ha",5
same,Wild oats plant response rating,wild oat; [5],9
same,"Plant response rating, Wild oats",wild oat; [6],2
same,"Plant response rating, S. Flatsedge (0 to 10 scale, 0 is no effect, 10 is complete control)",smallflower flatsedge; [7],0
same,"S. Flatsedge plant response rating (0 to 10 scale, 0 is no effect, 10 is complete control)",smallflower flatsedge; [8],0
same,S. Flatsedge plant response rating,smallflower flatsedge; [9],0
same,S. Flatsedge plant response rating,smallflower flatsedge; [10],0
same,Wheat plant response rating,wheat; [1],0
same,"Plant response rating, Wheat",wheat; [2],7
same,Wheat plant response rating,wheat; [3],0
same,Wheat plant response rating,wheat; [4],4
same,Wheat plant response rating (0 to 10 scale),"wheat; Preemergence, Rate 250 g/ha",6
same,Wheat plant response rating,wheat; [5],9
same,"Plant response rating, Wheat",wheat; [6],3
COCCn1c(=O)on(C(=O)N(c2ccc(F)cc2)C(C)C)c1=O [Compound 627],"Plant response rating, Crabgrass",crabgrass; [11],8
same,"Plant response rating, Crabgrass",crabgrass; [12],8
same,Crabgrass plant response rating,crabgrass; [13],9
same,"Plant response rating, Crabgrass",crabgrass; [2],9
same,Crabgrass plant response rating,crabgrass; [3],7
same,Crabgrass plant response rating,crabgrass; [14],8
same,"Plant response rating, Crabgrass",crabgrass; [15],9
same,"Plant response rating, Crabgrass",crabgrass; [5],9
same,"Plant response rating, Soybean",soybean; [11],2
same,"Plant response rating, Soybean",soybean; [12],4
same,Soybean plant response rating,soybean; [13],4
same,Soybean plant response rating,soybean; [3],0
same,Soybean plant response rating,soybean; [14],0
same,"Plant response rating, Soybean",soybean; [15],0
same,"Plant response rating, Soybean",soybean; [5],5
same,"Plant response rating, Wild oats",wild oat; [11],0
same,"Plant response rating, Wild oats",wild oat; [12],2
same,Wild oats plant response rating,wild oat; [13],6
same,Wild oats plant response rating,wild oat; [3],0
same,Wild oats plant response rating,wild oat; [14],3
same,"Plant response rating, Wild oats",wild oat; [15],5
same,"Plant response rating, Wild oats",wild oat; [5],5
same,"Plant response rating, S. Flatsedge (0 to 10 scale, 0 is no effect, 10 is complete control)",smallflower flatsedge; [7],0
same,"S. Flatsedge plant response rating (0 to 10 scale, 0 is no effect, 10 is complete control)",smallflower flatsedge; [8],0
same,S. Flatsedge plant response rating,smallflower flatsedge; [9],0
same,S. Flatsedge plant response rating,smallflower flatsedge; [10],3
same,"Plant response rating, Wheat",wheat; [11],2
same,"Plant response rating, Wheat",wheat; [12],3
same,Wheat plant response rating,wheat; [13],6
same,Wheat plant response rating,wheat; [3],0
same,Wheat plant response rating,wheat; [14],0
same,"Plant response rating, Wheat",wheat; [15],7
same,"Plant response rating, Wheat",wheat; [5],5
Cc1nn(C)c(Cl)c1-n1c(=O)on(C(=O)N(c2ccccc2)C(C)C)c1=O [Compound 121],Crabgrass plant response rating,crabgrass; [12],6
same,Crabgrass plant response rating,"crabgrass; Postemergence, Rate 250 g/ha, scale 0 to 10, 0 no effect, 10 complete control",9
same,Crabgrass plant response rating,crabgrass; [3],2
same,"Plant response rating, Crabgrass",crabgrass; [16],7
same,"Plant response rating, Crabgrass",crabgrass; [17],8
same,Crabgrass plant response rating,crabgrass; [18],9
same,Crabgrass plant response rating,crabgrass; [19],4
same,Crabgrass plant response rating,crabgrass; [20],9
same,Soybean plant response rating,soybean; [12],5
same,Soybean plant response rating,soybean; [3],0
same,"Plant response rating, Soybean",soybean; [16],0
same,"Plant response rating, Soybean",soybean; [17],0
same,Soybean plant response rating,soybean; [18],0
same,Soybean plant response rating,soybean; [19],5
same,"Plant response rating, Soybean",soybean; [21],6
same,Soybean plant response rating,soybean; [20],6
same,Wild oats plant response rating,wild oat; [12],0
same,Wild oats plant response rating,wild oat; [3],0
same,Wild oats plant response rating (0 to 10 scale),wild oat; [22],0
same,"Plant response rating, Wild oats",wild oat; [17],5
same,Wild oats plant response rating,wild oat; [18],6
same,Wild oats plant response rating,wild oat; [19],0
same,"Plant response rating, Wild oats",wild oat; [21],0
same,Wild oats plant response rating,wild oat; [20],0
same,S. Flatsedge plant response rating,"smallflower flatsedge; Postemergence (flood test species), Rate 125 g/ha, scale of 0 to 10 where 0 is no effect and 10 is complete control",5
same,S. Flatsedge plant response rating,"smallflower flatsedge; Pre-emergence, Rate 1000 g/ha, scale 0 to 10 (0 no effect, 10 complete control)",9
same,S. Flatsedge plant response rating,"smallflower flatsedge; Rate 62 g/ha, Postemergence section, flood test species, scale of 0 to 10 where 0 is no effect and 10 is complete control",3
same,"Plant response rating, S. Flatsedge","smallflower flatsedge; Rate 250 g/ha, Postemergence (flood test), scale 0 to 10, 0 is no effect, 10 is complete control",5
same,S. Flatsedge plant response rating,"smallflower flatsedge; Rate 250 g/ha, headed Pre-emergence (flood test species), scale 0 to 10 (0 no effect, 10 complete control)",0
same,"Plant response rating, S. Flatsedge","smallflower flatsedge; Rate 500 g/ha, headed Pre-emergence (flood test species), scale 0 to 10 (0 no effect, 10 complete control)",3
same,S. Flatsedge plant response rating,"smallflower flatsedge; Rate 500 g/ha, listed under Postemergence (flood test species), scale 0 to 10, 0 no effect, 10 complete control",6
same,S. Flatsedge plant response rating,"smallflower flatsedge; Rate 2000 g/ha, Pre-emergence (as headed), scale 0 to 10",9
same,Wheat plant response rating,wheat; [12],0
same,Wheat plant response rating,wheat; [3],0
same,Wheat plant response rating (0 to 10 scale),wheat; [22],0
same,"Plant response rating, Wheat",wheat; [17],0
same,Wheat plant response rating,wheat; [18],3
same,Wheat plant response rating,wheat; [19],0
same,"Plant response rating, Wheat",wheat; [21],0
same,Wheat plant response rating,wheat; [20],0
